Laboratory results as given in PubChem BioAssay (NCI).
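These data come from cells grown in 96-well plates and exposed to compound for 48 hours at five concentrations. TGI: concentration producing complete growth inhibition.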 Where a SMILES comes first, the peptide text is derived from it. [ ]: non-standard residue; d: D form. The star is where a group is joined. Boc = CC(C)(C)OC(=O)*; Lac = C[CH](O)C(=O)O; OBn = c1ccc(CO*)cc1

Columns and labels:
Experiment in all cases: growth of human tumour cells (NCI), 48 h
NCI-H23 lung = system: NCI-H23 lung
KM12 colon = system: KM12 colon
OVCAR-4 ovarian = system: OVCAR-4 ovarian
NCI-H460 lung = system: NCI-H460 lung

Compound	TGI (NCI-H23 lung) [µM]	TGI (KM12 colon) [µM]	TGI (OVCAR-4 ovarian) [µM]	TGI (NCI-H460 lung) [µM]
NC(=O)c1ccc(C(=O)Nc2ccc([As](=O)(O)O)cc2)cc1	> 100	> 100	> 100	> 100
CC(OC(=O)C(Cc1ccccc1)NC(=O)C(Cc1ccccc1)NC(=O)OC(C)(C)C)C(=O)OCc1ccccc1 (stereo not drawn) (Boc-Phe-Phe-[Lac]-OBn; configuration not given here)	> 100	> 100		> 100
C/C(=C\CO)CC/C=C(\C)CNc1c(F)c(F)c(F)c(F)c1F	> 100	77.5	> 100	> 100
Cn1c2ccc([N+](=O)[O-])cc2c(=O)n1Cc1ccccc1F	> 100	> 100	> 100	> 100
CC(=O)c1cccc(Nc2nc3ccccc3c3occc23)c1	50.8	> 100	61.5	> 100
CC1OC(OC2C(OC(=O)[C@]34CCC(C)(C)C[C@H]3C3=CC[C@@H]5[C@@]6(C)CC[C@H](OC7OC(C(=O)O)C(O)C(O)C7O)C(C)(C)[C@@H]6CC[C@@]5(C)[C@]3(C)C[C@H]4O)OCC(O)C2O)C(O)C(O)C1OC1OCC(OC2OCC(O)C(O)C2O)C(O)C1O (stereo partly specified)	4.87	14	9.31	32.6
Cn1c(=O)c2c3ccccc3n(C)c2n(C)c1=O	> 100	> 100	> 100	
COc1ccc(NC(=S)Nc2cc(C)cc(C)n2)cc1		> 100	> 100	> 100
C=CC[C@H]1O[Si](C(C)(C)C)(C(C)(C)C)[C@H](C)[C@H]1C	> 100	> 100	> 100	
Cc1ccc(Cc2n[nH]c(=O)[nH]2)cc1	> 100	> 100	> 100	> 100
O=C1C=Cc2c(Br)sc(Br)c21	> 100	> 100		> 100
C1=CC2(C=CC13O[C@H](C1CCCCC1)[C@@H](C1CCCCC1)O3)O[C@H](C1CCCCC1)[C@@H](C1CCCCC1)O2	> 50	> 50	> 50	> 50
CC1=C(C(=O)OCCO[N+](=O)[O-])C(c2cccc([N+](=O)[O-])c2)C(C(=O)OC(C)C)=C(C)N1 (stereo unspecified)	45.7	23.1	37.7	34.4
O=C1N(C2CCCCC2)C(=O)N1C1CCCCC1	23.8	15.7	31.7	30.3
O=C(NC(=S)Nc1ccc(Br)cc1)c1ccc2c(c1)Sc1ccccc1S2	45.4	74.8	33.5	32.3
CCOC(=O)c1c(SC(=O)c2ccc(C(C)(C)C)cc2)n(-c2ccccc2)c(=S)n(-c2ccccc2)c1=O	> 100	> 100	> 100	> 100
CCCN(CCC)CCc1ccc(OC2=CCN(C)CC2)cc1	> 100	> 100	> 100	
CC(=O)Nc1oc(C)c(C)c1S(=O)(=O)c1ccc(Cl)cc1	> 100	> 100	> 100	> 100
COc1cccc2c1C(=O)C1=C(C2=O)C(O)CC(C)(C)O1 (stereo unspecified)	74.5	91.2	55.8	> 100
NC(CCCCCCCCCCP(=O)(O)O)C(=O)O (stereo unspecified)	> 100	> 100	> 100	> 100
COc1ccc(N2CN3OC(=O)N(c4ccc(OC)cc4)[C@@]3(c3ccccc3)C2)cc1	> 100	> 100	> 100	> 100
COc1ccc2c(c1)CC[C@@H]1[C@@H]2CC[C@]2(C)C(=O)/C(=C/c3ccc(N(C)C)cc3)C[C@@H]12	> 100	> 100	> 100	> 100
CN(C)c1ccc(C2CC(c3ccc4ccccc4c3O)=NN2)cc1 (stereo unspecified)	> 100	> 100	> 100	> 100
Cc1ccc(Nc2nc(=O)c3c4ccccc4n(C(=O)OC(C)(C)C)c3s2)cc1	50.4	54.5	> 100	43.1

Compound	TGI (NCI-H23 lung) [µM]	TGI (KM12 colon) [µM]	TGI (OVCAR-4 ovarian) [µM]	TGI (NCI-H460 lung) [µM]
COc1ccccc1CCN1CCN(CCCc2ccccc2)CC1		> 100	> 100	> 100
C=C1C[C@@H]2CC[C@@]34CC5O[C@H]6C(O[C@H]7CC[C@H](CC(=O)O[C@@H]8[C@@H](C)[C@@H]9O[C@@H]%10C[C@]%11(C[C@@H]%12O[C@]%13(C[C@H](C)[C@@H]%14O[C@@H]%15CC(C(O)CO)O[C@@H]%15C[C@@H]%14O%13)C[C@H](C)[C@@H]%12O%11)O[C@@H]%10C[C@@H]9O[C@H]8CC8O[C@@H](CC[C@@H]1O2)C[C@@H](C)C8(O)CO)O[C@@H]7[C@@H]6O3)[C@H]5O4 (stereo partly specified)	> 1	> 1	> 1	> 1
O=C1NC(N/N=C/c2ccccc2)=N/C1=C\c1ccco1	95.6	> 100	> 100	45.5
N#Cc1cccc2c1Sc1ccccc1N2	> 100	> 100		> 100
COc1ccc(/C=c2/sc3n(c2=O)C(c2ccccc2)C2(O)CCCCC2N=3)cc1 (stereo unspecified)	> 12.5		> 12.5	> 12.5
Nc1ccccc1-c1noc(=O)[nH]1	> 100	> 100	> 100	
CCN(CC)c1ccc2cc(C(N)=O)c(=N)oc2c1	> 100	> 100	74.1	> 100
N#CC(C#N)=C1C(=Cc2ccc(OCCCCCCCCCCSSCCCCCCCCCCOc3ccc(C=C4C(=C(C#N)C#N)c5ccccc5C4=C(C#N)C#N)cc3)cc2)C(=C(C#N)C#N)c2ccccc21	32.6	78.1	52.9	44.7
S=c1nc2sc3c(c2c(Nc2ccc(Cl)cc2)[nH]1)CCCC3	> 100	> 100	> 100	> 100
CC1=NN(c2nc(N)nc(/C(C#N)=C/c3ccccc3O)n2)C(C)(C)C1	34.5	31.4	34.2	40.9
COc1cc2c(cc1OC)[C@@H]1[C@H](C#N)C(=O)C(C)(C)N1CC2	> 100	> 100	> 100	> 100
CN(CC(=O)N1CC(CCl)c2ccc([N+](=O)[O-])cc21)CC(=O)N1CC(CCl)c2ccc([N+](=O)[O-])cc21 (stereo unspecified)	> 100	> 100		> 100
COc1c2c(cc3c1C(=O)c1c(O)cccc1C3=O)CC(O)CC2 (stereo unspecified)	47	> 100	> 100	> 100
S=C(N1CCN(c2ccc(Cl)c(Cl)c2)CC1)N1CCN(c2ccc(Cl)c(Cl)c2)CC1	29.7	27.1	28.3	
Cc1c(-c2ccc(O)cc2)n(CCCCCCNCCOC(=O)NCCCc2ccc(N(CCCl)CCCl)cc2)c2ccc(O)cc12	3.45	3.75	4.44	5.05
Cc1ccc2c(c1)[nH]c(=S)n2C=C(C(N)=O)C(N)=O	> 100	> 100	> 100	> 100
O=C1NC(N/N=C/C(O)C(O)C(O)C(O)CO)=N/C1=C\c1ccco1 (stereo unspecified)	> 100	> 100	> 100	> 100
C=CCC1(O)CC(n2cc(C)c(=O)[nH]c2=O)OC1CO[Si](C)(C)C(C)(C)C (stereo unspecified)	> 100	> 100	> 100	> 100
O=C(C1OC1c1ccc(Cl)cc1)C12CC3CC(CC(C3)C1)C2 (stereo unspecified)	38.4	41	40	31.8
CN(C)CCCN1c2ccc([N+](=O)[O-])cc2CCc2cccc([N+](=O)[O-])c21	31.2	28.9	13.9	29.2
NC1c2c(Br)sc(N3CCCC3)c2C(=O)C1O (stereo unspecified)	> 50	> 50	> 50	> 50
Cc1ccc(-c2n[nH]c(Cc3nc(-c4ccc(C)cc4)n[nH]3)n2)cc1	> 100	> 100	> 100	
Nc1ncc(Br)c(NCC2(CO)CCC2)n1	> 100	> 100	> 100	> 100
Cc1ccc(S(=O)(=O)NC(=O)NC(CC(N)=O)C(=O)O)cc1 (stereo unspecified)	> 100	> 100	> 100	> 100

Compound	TGI (NCI-H23 lung) [µM]	TGI (KM12 colon) [µM]	TGI (OVCAR-4 ovarian) [µM]	TGI (NCI-H460 lung) [µM]
Cc1ccc(N=N/C(=N/NC(=O)c2cc(Cl)ccc2O)c2ccc(N(CCC#N)CCC#N)cc2C)cc1	55.9	> 100	97.7	68.8
COc1cccc(-c2nc3ccccc3c(=O)[nH]2)c1	> 100	86.9		42
C[N+](C)(CCCn1ccnc1[N+](=O)[O-])CCCn1ccnc1[N+](=O)[O-]	> 100	> 100	> 100	> 100
CC(C)(C)c1cc(C(=O)/C=C/c2c(Cl)cccc2Cl)cc(C(C)(C)C)c1O	48.9	36.8	> 100	24
CC1=CC(=O)[C@@H](O)[C@]2(C)[C@H]3[C@@]4(O)OC[C@]35[C@H]([C@@H](C)[C@H]4O)[C@@H](OC(=O)C(C)(C)CO)C(=O)O[C@@H]5C[C@@H]12	0.0869	0.787	1.9	0.547
C1=CC2C=CC(C=C1)P2c1ccccc1 (stereo unspecified)	> 100	> 100	> 100	> 100
CS(=O)(=O)OCCCCOS(=O)(=O)CF	> 100	> 100	> 100	> 100
NC1CC(=O)c2cscc21 (stereo unspecified)	> 100	43.1	> 100	> 100
Cc1nnc2n1N=C(c1ccccc1)/C(=C/c1ccc(-c3ccc(Cl)cc3)o1)S2	36.4	32.4	80	34.2
COC(=O)NC(Nc1ccccn1)(C(F)(F)F)C(F)(F)F	> 100	> 100		> 100
CO[C@]1(c2ccc([N+](=O)[O-])cc2)Oc2ccccc2C(=O)[C@@]1(Nc1ccc(C=O)cc1)OC	> 10	> 10	> 10	> 10
C=Cc1nc2c(Cl)ncnc2n1Cc1ccccc1	11.6	11.5	13.5	23.6
COc1cc(NC(C)c2ccc3c(c2)OCCO3)cc(OC)c1OC (stereo unspecified)	64.7	> 100	> 100	> 100
CCCCS(=O)(=O)CCC(N)P(=O)(O)O (stereo unspecified)	> 100	> 100	> 100	> 100
CN(C)CCNc1ccc([N+](=O)[O-])c2sc3ccccc3c(=O)c12	29.5	> 100	9.27	7.49
NC(N)=Nc1ccc(-c2ccc(N=C(N)N)cc2)cc1	> 100	> 100	> 100	> 100
O=C1OCN(c2ccccc2)C12CCN(Cc1ccccc1)CC2	> 100	47.2	> 100	54.5
C/C=C/C(C#N)(/C=C/c1ccccc1)OP1(=O)OC(c2ccccc2)C(C)N1C (stereo unspecified)		36.7		33.8
NC(=O)C(=CNC(N)=S)C(N)=O	> 100	> 100	> 100	> 100
CN1CCc2cc3c(c4c2C1C(O)c1ccccc1-4)OCO3 (stereo unspecified)	48.2	24	29.5	11.9
O=C(Nc1ccccc1)OCCN=C1c2ccccc2C(Br)C(Br)c2ccccc21 (stereo unspecified)	25.9	18.7	21.9	19.5
CN1Cc2ccccc2S(=O)(=O)n2cccc2C1=O		> 100	> 100	> 100
O=[N+]([O-])c1cccc2nc3ccccc3c(NCCCCNc3c4ccccc4nc4cccc([N+](=O)[O-])c34)c12	0.159	0.204	0.508	0.0574
